Key:
Assay type in all cases: in vivo
[1] = system: common cutworm (Spodoptera Litura); experiment: Insecticidal effect on common cutworm (Test Example 2); conditions: 500 ppm, cabbage leaf dip, second-instar larvae of common cutworm, 8 days after inoculation, 25° C.
Procedure, shortened: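 Air-dried treated material was placed in a closed dish with second-instar larvae and held at 25° C. Dead and live insects were counted eight days after inoculation, and mortality was calculated and scored against a fixed insecticidal-effect criterion. Three replicate groups of 10 insects were used.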

[2] = system: rice leafroller (Cnaphalocrocis medinalis); experiment: Insecticidal effect on rice leafroller (Test Example 3); conditions: 500 ppm, rice lamina dip, third-instar larvae of rice leafroller, 4 days after inoculation, 25° C., humidity 70%
Procedure, shortened: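 Insecticidal effect is judged by a predefined criterion from dead/alive counts four days after infesting air-dried lamina with third-instar larvae, kept on moistened filter paper at 25° C, 70% humidity.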

[3] = system: diamondback moth (Plutella xylostella); experiment: Insecticidal effect on diamondback moth (Test Example 1); conditions: diamondback moth; judged by the criterion of Test Example 1
Procedure, shortened: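 Oviposition by adults on Chinese cabbage seedling; immersion; air-dry; 25° C room. Count of hatched larvae at day 6 post-immersion → mortality → effect graded by criterion. Triplicate, 10 insects/group.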

SMILES | Insecticidal effect (Test Example 2), judged from mortality [1] | Insecticidal effect (Test Example 3), judged from mortality [2] | Insecticidal effect (Test Example 1), judged from mortality [3]
C#CC(C)(C)NC(=O)c1c(Cl)cccc1C(=O)Nc1ccc(C(F)(F)C(F)(F)F)cc1C [compound 1466] | A (100) | A (100) | A (100)
C#CC(C)(C)NC(=O)c1cccc(Cl)c1C(=O)Nc1ccc(C(F)(F)C(F)(F)F)cc1C [compound 1467] | A (100) | A (100) | A (100)
Cc1cc(C(F)(F)C(F)(F)F)ccc1NC(=O)c1cccc(Cl)c1C(=O)NCc1ccccc1F [compound 1468] | C (89-80) | A (100) | A (100)
CCC(C)NC(=O)c1c(I)cccc1C(=O)Nc1ccc(C(F)(F)C(F)(F)F)cc1F (stereo not drawn) [compound 1472] | A (100) | A (100) | A (100)
CCC(C)NC(=O)c1c(I)cccc1C(=O)Nc1ccc(C(F)(F)C(F)(F)F)cc1Cl (stereo not drawn) [compound 1473] | A (100) | A (100) | A (100)
CC(C)NC(=O)c1c(I)cccc1C(=O)Nc1ccc(C(F)(F)C(F)(F)C(F)(F)F)cc1F [compound 1474] | A (100) | A (100) | A (100)
CCc1cc(C(F)(F)C(F)(F)F)ccc1NC(=O)c1cccc(I)c1C(=O)NC(C)(C)C [compound 1475] | A (100) | A (100) | A (100)
Cc1cc(C(F)(F)C(F)(F)F)ccc1NC(=O)c1cccc(Cl)c1C(=O)NC(C)(C)C#Cc1cccs1 [compound 1479] | A (100) | A (100) | A (100)
Cc1cc(C(F)(F)C(F)(F)F)ccc1NC(=O)c1cccc(I)c1C(=O)N[C@H](C)CO [compound 1481] | A (100) | A (100) | A (100)
Cc1cc(C(F)(F)C(F)(F)F)ccc1NC(=O)c1cccc(I)c1C(=O)N[C@@H](C)CO [compound 1482] | A (100) | A (100) | A (100)
Cc1cc(C(F)(F)C(F)(F)F)ccc1NC(=O)c1cccc(Cl)c1C(=O)NC(C)(C)c1ccc(Cl)cc1 [compound 1484] | A (100) | A (100) | A (100)
Cc1cc(C(F)(F)C(F)(F)F)ccc1NC(=O)c1cccc(Cl)c1C(=O)NC(C)(C)c1cccc(Cl)c1 [compound 1485] | A (100) | A (100) | A (100)
CCNC(=O)c1c(Cl)cccc1C(=O)Nc1ccc(C(F)(F)C(F)(F)F)cc1Cl [compound 1489] | A (100) | A (100) | A (100)
CCCNC(=O)c1c(Cl)cccc1C(=O)Nc1ccc(C(F)(F)C(F)(F)F)cc1F [compound 1491] | A (100) | A (100) | A (100)
CC(C)NC(=O)c1c(Cl)cccc1C(=O)Nc1ccc(C(F)(F)C(F)(F)C(F)(F)F)cc1F [compound 1494] | A (100) | A (100) | A (100)
CCc1cc(C(F)(F)C(F)(F)F)ccc1NC(=O)c1cccc(Cl)c1C(=O)NC(C)C [compound 1495] | A (100) | A (100) | A (100)
CC(C)(C)NC(=O)c1c(Cl)cccc1C(=O)Nc1ccc(C(F)(F)C(F)(F)C(F)(F)F)cc1F [compound 1496] | A (100) | A (100) | A (100)
CCc1cc(C(F)(F)C(F)(F)F)ccc1NC(=O)c1cccc(Cl)c1C(=O)NC(C)(C)C [compound 1497] | A (100) | A (100) | A (100)

SMILES | Insecticidal effect (Test Example 2), judged from mortality [1] | Insecticidal effect (Test Example 3), judged from mortality [2] | Insecticidal effect (Test Example 1), judged from mortality [3]
CCC(C)NC(=O)c1c(Cl)cccc1C(=O)Nc1ccc(C(F)(F)C(F)(F)F)cc1F (stereo not drawn) [compound 1498] | A (100) | A (100) | A (100)
CCC(C)NC(=O)c1c(Cl)cccc1C(=O)Nc1ccc(C(F)(F)C(F)(F)F)cc1Cl (stereo not drawn) [compound 1499] | A (100) | A (100) | A (100)
CCC(C)NC(=O)c1c(Cl)cccc1C(=O)Nc1ccc(C(F)(F)C(F)(F)C(F)(F)F)cc1F (stereo not drawn) [compound 1500] | A (100) | A (100) | A (100)
CCc1cc(C(F)(F)C(F)(F)F)ccc1NC(=O)c1cccc(Cl)c1C(=O)NC(C)CC (stereo not drawn) [compound 1501] | A (100) | A (100) | A (100)
CCNC(=O)c1c(I)cccc1C(=O)Nc1ccc(C(F)(F)C(F)(F)F)cc1F [compound 1502] | A (100) | A (100) | A (100)
CCNC(=O)c1c(I)cccc1C(=O)Nc1ccc(C(F)(F)C(F)(F)F)cc1Cl [compound 1503] | C (89-80) | A (100) | A (100)
CC(C)(C)NC(=O)c1c(I)cccc1C(=O)Nc1ccc(C(F)(F)C(F)(F)C(F)(F)F)cc1F [compound 1504] | A (100) | A (100) | A (100)
Cc1cc(C(F)(F)C(F)(F)F)ccc1NC(=O)c1cccc(F)c1C(=O)NC(C)(C)C [compound 1505] | A (100) | A (100) | A (100)
Cc1cc(OC(F)F)ccc1NC(=O)c1cccc(F)c1C(=O)NC(C)(C)C [compound 1506] | A (100) | A (100) | A (100)
CC(C)(C)NC(=O)c1c(F)cccc1C(=O)Nc1ccc(C(F)(F)C(F)(F)F)cc1F [compound 1507] | A (100) | A (100) | A (100)
CC(C)(C)NC(=O)c1c(F)cccc1C(=O)Nc1ccc(C(F)(F)C(F)(F)F)cc1Cl [compound 1508] | C (89-80) | A (100) | A (100)
CC(C)(C)NC(=O)c1c(F)cccc1C(=O)Nc1ccc(C(F)(F)C(F)(F)C(F)(F)F)cc1F [compound 1509] | C (89-80) | A (100) | A (100)
CCCNC(=O)c1c(F)cccc1C(=O)Nc1ccc(C(F)(F)C(F)(F)F)cc1F [compound 1512] | A (100) | A (100) | A (100)
CC(C)NC(=O)c1c(F)cccc1C(=O)Nc1ccc(C(F)(F)C(F)(F)F)cc1Cl [compound 1516] | A (100) | A (100) | A (100)
Cc1cc(-c2ccc(C(F)(F)F)cc2)ccc1NC(=O)c1cccc(I)c1C(=O)NC(C)C [compound 1522] | A (100) | A (100) | A (100)
CCCNC(=O)c1c(I)cccc1C(=O)Nc1ccc(C(F)(F)C(F)(F)C(F)(F)F)cc1F [compound 1524] | A (100) | A (100) | A (100)
CCN(CC)C(=O)c1c(F)cccc1C(=O)Nc1ccc(C(F)(F)C(F)(F)F)cc1C [compound 1525] | A (100) | A (100) | A (100)

From patent publication US6362369B1, “Phthalic acid diamide derivatives fluorine-containing aniline compounds as starting material, agricultural and horticultural insecticides, and a method for application of the insecticides” (Nihon Nohyaku Co., Ltd., priority 1997, dated 2002)
